Measurements reported in PubChem BioAssay (NCI).
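Cultured in 96-well plates, cells were exposed to test compound for 48 hours across five concentrations. GI50 marks 50% less growth. TGI marks complete inhibition of growth.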

Columns and labels:
Assay in all cases: growth of human tumour cells (NCI), 48 h
ACHN renal = test system: ACHN renal
NCI-H23 lung = test system: NCI-H23 lung
TK-10 renal = test system: TK-10 renal
NCI-H226 lung = test system: NCI-H226 lung
K-562 leukemia = test system: K-562 leukemia
SW-620 colon = test system: SW-620 colon
SK-MEL-28 melanoma = test system: SK-MEL-28 melanoma
HCT-116 colon = test system: HCT-116 colon
KM12 colon = test system: KM12 colon
OVCAR-5 ovarian = test system: OVCAR-5 ovarian

| SMILES | GI50 (ACHN renal) [µM] | TGI (ACHN renal) [µM] | TGI (NCI-H23 lung) [µM] | GI50 (TK-10 renal) [µM] | TGI (TK-10 renal) [µM] | TGI (NCI-H226 lung) [µM] | TGI (K-562 leukemia) [µM] | TGI (SW-620 colon) [µM] | TGI (SK-MEL-28 melanoma) [µM] | TGI (HCT-116 colon) [µM] | TGI (KM12 colon) [µM] | TGI (OVCAR-5 ovarian) [µM] | GI50 (NCI-H23 lung) [µM] | GI50 (NCI-H226 lung) [µM] | GI50 (K-562 leukemia) [µM] | GI50 (SW-620 colon) [µM] | GI50 (SK-MEL-28 melanoma) [µM] | GI50 (HCT-116 colon) [µM] | GI50 (KM12 colon) [µM] | GI50 (OVCAR-5 ovarian) [µM] |
| --- | --- | --- | --- | --- | --- | --- | --- | --- | --- | --- | --- | --- | --- | --- | --- | --- | --- | --- | --- | --- |
| S=C1Cc2c(-c3ccc(Br)cc3)cc(-c3ccccc3)nc2-c2ccccc2N1 | 0.867 | 2.35 | 12.6 | 1.79 | 3.75 | 8.54 | > 100 | 9.15 | 27.3 | 5.38 | > 42 | 14.4 | – | – | – | – | – | – | – | – |
| CN(C)CC1CC/C(=C\c2ccc3c(c2)OCO3)C1=O (configuration not stated) | – | 28.5 | 24.4 | – | 25.1 | 50.6 | 11.4 | 14.4 | 22.9 | 18.6 | 18.9 | 39.3 | – | – | – | – | – | – | – | – |
| CNCCCNc1nc2ccccc2c2c(=O)c3cc(OC)ccc3sc12 | 1.64 | 3 | 3.19 | 1.73 | 3.39 | 3.9 | 5.38 | 3.28 | 3.15 | 3.52 | 3.52 | 3.08 | 1.7 | 1.8 | 2 | 1.72 | 1.74 | 1.78 | 1.83 | 1.67 |
| Cc1c(C#N)cccc1[C@@H](C)Nc1nnc(C)c2cnc(N3CCOCC3)cc12 | 21.4 | > 100 | > 100 | 14.2 | > 100 | > 100 | > 100 | > 100 | > 100 | > 100 | > 100 | > 100 | 15.3 | 23.2 | 0.367 | 18.9 | 28.3 | 32.7 | 6.61 | 42.2 |
| COc1ccc2nc(C(=O)c3ccccc3)c(C)cc2c1 | – | > 100 | 11.1 | – | 76.1 | > 86 | > 100 | > 37.4 | > 62.2 | > 40.7 | > 45.8 | > 100 | – | – | – | – | – | – | – | – |
| COc1cc(OC)cc(C2C3=C(COC3=O)Nc3cc(OC)ccc32)c1 (configuration not stated) | < 0.01 | 33.9 | > 43.7 | 22.2 | > 92.5 | 0.0207 | 13.4 | > 70.8 | > 94.2 | 0.413 | < 0.0106 | > 100 | < 0.01 | < 0.01 | < 0.01 | < 0.01 | < 0.01 | < 0.01 | < 0.01 | < 0.0201 |
| COc1ccccc1S(=O)(=O)Nc1ccc2c3c(cc(CCC(=O)NCCCCNc4cccc5c4C(=O)N(C4CCC(=O)NC4=O)C5=O)cc13)C(=O)N2C (configuration not stated) | > 100 | > 100 | > 100 | > 29.9 | > 100 | 4.79 | > 100 | > 100 | > 100 | > 100 | > 100 | > 100 | 17 | 0.456 | 0.443 | 0.24 | 1.08 | 3.06 | 0.697 | 2.77 |
